Measured values published in patent US9546164B2 (GENENTECH, INC., priority 2013, dated 2017).
Counter-ions that a name gives are not always drawn. Like-named read-outs stand apart in the source and are kept apart here.

Columns and labels:
NaV1.7 = NaV1.7 (Homo sapiens (Human), UniProt Q15858); experiment: Patch voltage clamp electrophysiological assay (EP), NaV1.7; format: cell-based; details: HEK-293 cells stably expressing human NaV1.7 with β1 subunit, whole-cell patch clamp, holding −60 mV
Description: Electrophysiological Assay (EP) (In vitro Assay)
Control sodium currents were measured in 0.5% DMSO.
Series resistance compensation was applied (60-80%).

hNav1.7 = hNav1.7 (Homo sapiens (Human), UniProt Q15858); experiment: Tritiated sulfonamide competitive binding to membranes from cells expressing hNav1.7 and the β1 subunit;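 note: Filter-bound radioactivity counted by liquid scintillation, nonspecific binding defined with excess unlabelled ligand, IC50 fitted to percent inhibition of specific binding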
NaV1.5 = NaV1.5 (Homo sapiens (Human), UniProt Q14524); experiment: Patch voltage clamp electrophysiological assay (EP), NaV1.5
Description: The following patch voltage clamp electrophysiology studies were performed on representative compounds of the invention using human embryonic kidney cells (HEK), permanently transfected with an expression vector containing the full-length cDNA coding for the desired human sodium channel α-subunit, grown in culture media containing 10% FBS, 1% PSG, and 0.5 mg/mL G418 at 37° C. with 5% CO2. […] The β1 subunit was coexpressed in both the NaV1.7 and NaV1.5 cell lines.
Sodium currents were measured rising the patch clamp technique in the whole-cell configuration using either a PatchXpress automated voltage clamp or manually using an Axopatch 200B (Axon Instruments) or Model 2400 (A-M systems) amplifier. […] The pipette was filled with a solution comprised of: 5 mM NaCl, 10 mM CsCl, 120 mM CsF, 0.1 mM CaCl2, 2 mM MgCl2, 10 mM HEPES, 10 mM EGTA; and adjusted to pH 7.2 with CsOH. The external solution had the following composition: 140 mM NaCl, 5 mM KCl, 2 mM CaCl2, 1 mM MgCl2, 10 mM HEPES; and adjusted to pH 7.4 with NaOH. In some studies, the external sodium was reduced by equimolar replacement with choline. Osmolality in the CsF internal and NaCl external solutions was adjusted to 300 mOsm/kg and 310 mOsm/kg with glucose, respectively. All recordings were performed at ambient temperature in a bath chamber with a volume of 150 μL. Control sodium currents were measured in 0.5% DMSO. Controls and representative compounds of the invention were applied to the recording chamber through a 4-pinch or 8-pinch valve bath perfusion system manufactured by ALA Scientific Instruments.
Currents were recorded at 40 kHz sampling frequency, filtered at 5 Hz, and stored using a Digidata-1322A analogue/digital interface with the pClamp software (Axon instruments). Series resistance compensation was applied (60-80%). […] All statistics in this study are given as mean±SD.
The membrane potential was maintained at a voltage where reactivation of the channel is complete (which was −60 mV for both NaV1.7 and NaV1.5). The voltage is then stepped back to a very negative (Vhold=150 mV) voltage for 20 ms and then a test poise is applied to quantify the compound block. The 20 ms brief repolarization was long enough for compound-free channels to completely recover from fast inactivation, but the compound-bound channels recovered more slowly such that negligible recovery could occur during this interval. The percent decrease in sodium current following wash-on of compound was taken as the percent block of sodium channels.

[1] = read-out: Ligand Binding Assay, 100 pM [3H]compound, membranes with hNav1.7 and β1 subunit, 18 h, room temperature
[2] = read-out: NaV1.5 EP, HEK-293 cells stably expressing human NaV1.5 with β1 subunit, whole-cell patch clamp, holding −60 mV

NaV1.7, sequence (Q15858 other isoform, or with tags, fused parts or gaps): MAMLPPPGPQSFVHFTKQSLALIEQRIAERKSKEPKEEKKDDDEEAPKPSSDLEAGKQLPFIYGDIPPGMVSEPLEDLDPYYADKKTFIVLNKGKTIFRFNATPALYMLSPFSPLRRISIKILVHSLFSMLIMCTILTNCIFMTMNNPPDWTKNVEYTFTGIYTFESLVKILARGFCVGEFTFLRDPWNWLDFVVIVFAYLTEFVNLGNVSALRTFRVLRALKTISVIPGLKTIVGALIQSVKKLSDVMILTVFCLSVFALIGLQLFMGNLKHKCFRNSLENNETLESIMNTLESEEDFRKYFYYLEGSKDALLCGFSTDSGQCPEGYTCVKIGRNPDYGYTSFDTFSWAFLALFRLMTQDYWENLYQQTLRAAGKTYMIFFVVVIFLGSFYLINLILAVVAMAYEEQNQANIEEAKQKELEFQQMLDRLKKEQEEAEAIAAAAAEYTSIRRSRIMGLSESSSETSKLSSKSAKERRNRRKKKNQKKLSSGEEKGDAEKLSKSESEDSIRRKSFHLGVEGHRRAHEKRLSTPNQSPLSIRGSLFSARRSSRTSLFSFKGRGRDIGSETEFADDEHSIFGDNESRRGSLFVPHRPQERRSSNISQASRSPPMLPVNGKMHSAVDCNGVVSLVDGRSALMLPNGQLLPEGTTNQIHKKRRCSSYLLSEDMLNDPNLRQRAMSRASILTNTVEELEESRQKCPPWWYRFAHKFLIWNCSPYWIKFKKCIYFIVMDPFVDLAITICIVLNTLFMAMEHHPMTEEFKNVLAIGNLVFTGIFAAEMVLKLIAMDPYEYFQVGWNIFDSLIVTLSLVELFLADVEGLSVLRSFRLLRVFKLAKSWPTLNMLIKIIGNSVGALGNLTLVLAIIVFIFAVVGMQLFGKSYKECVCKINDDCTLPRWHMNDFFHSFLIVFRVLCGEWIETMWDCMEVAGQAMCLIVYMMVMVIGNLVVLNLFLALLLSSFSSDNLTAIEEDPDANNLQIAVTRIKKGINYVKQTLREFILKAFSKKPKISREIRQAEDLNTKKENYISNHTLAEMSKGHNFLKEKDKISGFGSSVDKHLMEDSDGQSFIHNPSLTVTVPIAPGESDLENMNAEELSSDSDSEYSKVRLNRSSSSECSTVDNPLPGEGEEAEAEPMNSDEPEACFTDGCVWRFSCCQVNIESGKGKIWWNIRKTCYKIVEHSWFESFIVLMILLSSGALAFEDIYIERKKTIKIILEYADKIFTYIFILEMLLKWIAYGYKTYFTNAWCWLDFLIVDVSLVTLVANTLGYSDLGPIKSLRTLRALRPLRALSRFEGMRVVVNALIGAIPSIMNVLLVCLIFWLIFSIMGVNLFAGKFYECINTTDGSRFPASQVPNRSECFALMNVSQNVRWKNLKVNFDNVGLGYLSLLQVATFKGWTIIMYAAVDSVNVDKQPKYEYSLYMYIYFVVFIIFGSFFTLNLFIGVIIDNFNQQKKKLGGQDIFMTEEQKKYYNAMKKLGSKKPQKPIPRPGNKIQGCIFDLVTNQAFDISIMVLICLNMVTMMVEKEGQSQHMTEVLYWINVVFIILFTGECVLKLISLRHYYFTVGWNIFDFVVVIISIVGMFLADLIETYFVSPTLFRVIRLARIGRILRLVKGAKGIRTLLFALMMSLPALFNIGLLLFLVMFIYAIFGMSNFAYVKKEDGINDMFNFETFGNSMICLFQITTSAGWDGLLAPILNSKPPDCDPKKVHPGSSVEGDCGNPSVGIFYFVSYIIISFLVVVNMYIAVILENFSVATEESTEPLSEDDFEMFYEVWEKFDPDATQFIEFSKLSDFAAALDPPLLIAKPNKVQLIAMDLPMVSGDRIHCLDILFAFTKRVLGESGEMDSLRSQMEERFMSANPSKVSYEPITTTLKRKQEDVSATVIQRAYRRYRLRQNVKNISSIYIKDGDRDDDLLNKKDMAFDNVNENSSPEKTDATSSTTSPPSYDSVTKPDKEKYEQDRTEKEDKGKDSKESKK
NaV1.7, sequence (Q07699 19-218 partner): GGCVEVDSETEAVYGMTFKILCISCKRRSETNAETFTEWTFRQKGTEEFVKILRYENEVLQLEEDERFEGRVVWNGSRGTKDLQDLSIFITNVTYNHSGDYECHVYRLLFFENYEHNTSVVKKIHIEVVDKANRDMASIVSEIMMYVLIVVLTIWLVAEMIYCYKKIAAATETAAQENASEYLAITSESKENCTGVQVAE
hNav1.7, sequence (Q15858 other isoform, or with tags, fused parts or gaps): as the sequence (Q15858 other isoform, or with tags, fused parts or gaps) above
hNav1.7, sequence (Q07699 19-218 partner): as the sequence (Q07699 19-218 partner) above
NaV1.5, sequence (Q14524 whole entry): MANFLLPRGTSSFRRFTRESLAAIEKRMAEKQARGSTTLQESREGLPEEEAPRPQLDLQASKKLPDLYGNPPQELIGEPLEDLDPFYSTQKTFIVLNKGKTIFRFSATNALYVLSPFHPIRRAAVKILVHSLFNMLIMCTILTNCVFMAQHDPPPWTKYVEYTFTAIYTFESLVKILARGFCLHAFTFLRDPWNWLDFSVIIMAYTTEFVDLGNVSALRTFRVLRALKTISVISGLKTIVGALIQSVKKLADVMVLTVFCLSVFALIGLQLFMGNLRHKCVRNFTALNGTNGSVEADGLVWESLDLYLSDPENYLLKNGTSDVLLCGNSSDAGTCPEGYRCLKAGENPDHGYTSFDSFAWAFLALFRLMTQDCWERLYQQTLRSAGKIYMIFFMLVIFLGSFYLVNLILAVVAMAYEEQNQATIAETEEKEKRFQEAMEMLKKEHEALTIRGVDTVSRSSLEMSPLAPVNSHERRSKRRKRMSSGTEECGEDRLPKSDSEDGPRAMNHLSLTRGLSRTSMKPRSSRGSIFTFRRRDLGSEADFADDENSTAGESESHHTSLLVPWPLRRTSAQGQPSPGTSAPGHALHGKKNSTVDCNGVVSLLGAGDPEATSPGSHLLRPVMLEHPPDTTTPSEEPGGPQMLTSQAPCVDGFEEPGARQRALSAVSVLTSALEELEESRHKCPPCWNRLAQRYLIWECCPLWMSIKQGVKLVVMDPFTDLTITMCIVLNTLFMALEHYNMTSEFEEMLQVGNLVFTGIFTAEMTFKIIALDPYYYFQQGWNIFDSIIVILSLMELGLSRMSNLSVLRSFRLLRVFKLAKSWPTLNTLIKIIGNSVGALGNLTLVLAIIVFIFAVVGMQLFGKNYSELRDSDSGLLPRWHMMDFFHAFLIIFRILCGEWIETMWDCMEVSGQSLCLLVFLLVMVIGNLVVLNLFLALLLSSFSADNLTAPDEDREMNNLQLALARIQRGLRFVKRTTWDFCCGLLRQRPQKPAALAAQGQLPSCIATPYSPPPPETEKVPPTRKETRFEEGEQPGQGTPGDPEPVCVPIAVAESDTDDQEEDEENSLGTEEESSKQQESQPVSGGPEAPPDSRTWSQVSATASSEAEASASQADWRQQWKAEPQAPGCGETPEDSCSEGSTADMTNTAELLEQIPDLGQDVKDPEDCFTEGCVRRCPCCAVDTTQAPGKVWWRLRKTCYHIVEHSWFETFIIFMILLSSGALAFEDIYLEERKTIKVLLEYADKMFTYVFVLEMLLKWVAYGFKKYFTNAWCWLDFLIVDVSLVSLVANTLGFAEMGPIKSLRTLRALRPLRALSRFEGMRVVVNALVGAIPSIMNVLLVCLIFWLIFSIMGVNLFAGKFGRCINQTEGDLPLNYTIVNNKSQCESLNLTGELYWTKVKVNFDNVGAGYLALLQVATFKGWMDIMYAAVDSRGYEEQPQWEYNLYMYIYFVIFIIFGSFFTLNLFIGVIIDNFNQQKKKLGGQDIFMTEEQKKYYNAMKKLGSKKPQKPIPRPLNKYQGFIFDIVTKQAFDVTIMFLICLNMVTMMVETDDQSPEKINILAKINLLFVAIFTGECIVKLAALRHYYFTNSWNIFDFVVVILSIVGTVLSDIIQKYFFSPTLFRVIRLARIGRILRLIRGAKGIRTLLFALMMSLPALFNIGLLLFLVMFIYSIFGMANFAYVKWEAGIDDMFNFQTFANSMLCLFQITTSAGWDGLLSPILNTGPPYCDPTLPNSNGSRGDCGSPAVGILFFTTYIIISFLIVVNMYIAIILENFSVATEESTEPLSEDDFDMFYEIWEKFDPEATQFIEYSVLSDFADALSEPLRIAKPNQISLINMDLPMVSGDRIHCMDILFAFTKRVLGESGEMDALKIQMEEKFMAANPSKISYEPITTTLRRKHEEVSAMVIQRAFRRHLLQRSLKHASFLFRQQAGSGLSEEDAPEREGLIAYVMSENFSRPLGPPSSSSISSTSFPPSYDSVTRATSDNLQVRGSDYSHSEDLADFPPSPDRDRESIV

## COC[C@@H](c1cc(Cl)cc(Cl)c1)N1CCC(COc2cc(F)c(C(=O)NS(C)(=O)=O)cc2C2CC2)CC1 (single isomer, unassigned) [Example 162]
NaV1.7
  IC50: 2.8 nM
hNav1.7; [1]
  IC50: 3.9 nM

## COC[C@@H](c1cc(Cl)cc(Cl)c1)N1CCC(COc2cc(F)c(C(=O)NS(=O)(=O)C3CC3)cc2C2CC2)CC1 (single isomer, unassigned) [Example 164]
NaV1.7
  IC50: 3.3 nM
hNav1.7; [1]
  IC50: 4.3 nM

## COC[C@H](c1cc(Cl)cc(Cl)c1)N1CCC(COc2cc(F)c(C(=O)NS(=O)(=O)C3CC3)cc2C2CC2)CC1 (single isomer, unassigned) [Example 165]
NaV1.7
  IC50: 2.4 nM
NaV1.5; [2]
  IC50: 49 nM
hNav1.7; [1]
  IC50: 2.3 nM

## COC[C@H](c1cc(Cl)cc(Cl)c1)N1CCC(COc2cc(F)c(C(=O)NS(=O)(=O)N3CCC3)cc2C2CC2)CC1 (single isomer, unassigned) [Example 167]
NaV1.7
  IC50: 4.2 nM

## CCS(=O)(=O)NC(=O)c1cc(C2CC2)c(OCC2CCN([C@@H](COC)c3cc(Cl)cc(Cl)c3)CC2)cc1F (single isomer, unassigned) [Example 168]
NaV1.7
  IC50: 3 nM
NaV1.5; [2]
  IC50: 78 nM
hNav1.7; [1]
  IC50: 6.2 nM

## CCS(=O)(=O)NC(=O)c1cc(C2CC2)c(OCC2CCN([C@H](COC)c3cc(Cl)cc(Cl)c3)CC2)cc1F (single isomer, unassigned) [Example 169]
NaV1.7
  IC50: 3 nM
NaV1.5; [2]
  IC50: 280 nM
hNav1.7; [1]
  IC50: 6.3 nM

## O=C(NS(=O)(=O)N1CCC1)c1cc(C2CC2)c(O[C@H]2CCCN(Cc3ccccc3)C2)cc1F [Example 2, (S)—N-(azetidin-1-ylsulfonyl)-4-((1-benzylpiperidin-3-yl)oxy)-5-cyclopropyl-2-fluorobenzamide]
NaV1.7
  IC50: 1080 nM
hNav1.7; [1]
  IC50: 4120 nM

## O=C(NS(=O)(=O)C1CC1)c1cc(C2CC2)c(O[C@@H]2CCCN(Cc3cccc(Cl)c3)C2)cc1F [Example 27, (R)-4-((1-(3-chlorobenzyl)piperidin-3-yl)oxy)-5-cyclopropyl-N-(cyclopropylsulfonyl)-2-fluorobenzamide]
NaV1.5
  IC50: 169 nM
hNav1.7
  IC50: 3.6 nM

## CC(C)(c1cc(Cl)cc(Cl)c1)N1CCC(COc2cc(F)c(C(=O)NS(C)(=O)=O)cc2C2CC2)CC1 [Example 209]
NaV1.7
  IC50: 15.8 nM
hNav1.7; [1]
  IC50: 1.7 nM

## CC(C)Oc1ncc(CN2CCC(COc3cc(F)c(C(=O)NS(C)(=O)=O)cc3C3CC3)CC2)cc1Cl [Example 217, 4-((1-((5-Chloro-6-isopropoxypyridin-3-yl)methyl)piperidin-4-yl)methoxy)-5-cyclopropyl-2-fluoro-N-(methylsulfonyl)benzamide]
NaV1.7
  IC50: 2.5 nM
NaV1.5; [2]
  IC50: 190 nM

## CS(=O)(=O)NC(=O)c1cc(C2CC2)c(OCC2CCN(Cc3cc(F)cc(Cl)c3)CC2)cc1F [Example 268, 4-((1-(3-Chloro-5-fluorobenzyl)piperidin-4-yl)methoxy)-5-cyclopropyl-2-fluoro-N-(methylsulfonyl)benzamide]
NaV1.7
  IC50: 2.8 nM
hNav1.7; [1]
  IC50: 6 nM

## COc1ccc(CN2CCC[C@@H](Oc3cc(F)c(C(=O)NS(C)(=O)=O)cc3C3CC3)C2)c(C)c1 [Example 434, trifluoroacetic acid salt]
NaV1.7
  IC50: 12.8 nM
hNav1.7; [1]
  IC50: 5 nM

## O=C(NS(=O)(=O)C1CC1)c1cc(C2CC2)c(CN2[C@@H]3CC[C@H]2C[C@@H](Oc2cc(Cl)cc(Cl)c2)C3)cc1F [Example 475, 5-cyclopropyl-N-(cyclopropylsulfonyl)-4-(((1R,3r,5S)-3-(3,5-dichlorophenoxy)-8-azabicyclo[3.2.1]octan-8-yl)methyl)-2-fluorobenzamide hydrochloride]
NaV1.5
  IC50: 814 nM

## O=C(NS(=O)(=O)N1CCC1)c1cc(C2CC2)c(OCC2CCN(Cc3cc(C(F)(F)F)cc(Cl)c3F)CC2)cc1F [Example 583, N-(azetidin-1-ylsulfonyl)-4-((1-(3-chloro-2-fluoro-5-(trifluoromethyl)benzyl)piperidin-4-yl)methoxy)-5-cyclopropyl-2-fluorobenzamide]
hNav1.7; [1]
  IC50: 3.4 nM

## CS(=O)(=O)NC(=O)c1cc(C2CC2)c(OCC2CCN(Cc3ccc(Br)cc3C(F)(F)F)CC2)cc1F [Example 585, 4-((1-(4-bromo-2-(trifluoromethyl)benzyl)piperidin-4-yl)methoxy)-5-cyclopropyl-2-fluoro-N-(methylsulfonyl)benzamide]
hNav1.7; [1]
  IC50: 3.5 nM

## CS(=O)(=O)NC(=O)c1cc(C2CC2)c(OCC2CCN(Cc3ccc(F)cc3C(F)(F)F)CC2)cc1F [Example 586, 5-cyclopropyl-2-fluoro-4-((1-(4-fluoro-2-(trifluoromethyl)benzyl)piperidin-4-yl)methoxy)-N-(methylsulfonyl)benzamide]
hNav1.7; [1]
  IC50: 5.2 nM

## CS(=O)(=O)NC(=O)c1cc(C2CC2)c(OCC2CCN(Cc3ccc(Br)c(Cl)c3)CC2)cc1F [Example 587, 4-((1-(4-bromo-3-chlorobenzyl)piperidin-4-yl)methoxy)-5-cyclopropyl-2-fluoro-N-(methylsulfonyl)benzamide]
hNav1.7; [1]
  IC50: 5.1 nM

## CS(=O)(=O)NC(=O)c1cc(C2CC2)c(OCC2CCN(Cc3cc(F)c(Br)cc3F)CC2)cc1F [Example 588, 4-((1-(4-bromo-2,5-difluorobenzyl)piperidin-4-yl)methoxy)-5-cyclopropyl-2-fluoro-N-(methylsulfonyl)benzamide]
hNav1.7; [1]
  IC50: 6.9 nM

## CS(=O)(=O)NC(=O)c1cc(C2CC2)c(OCC2CCN(Cc3ccc(Br)cc3F)CC2)cc1F [Example 589, 4-((1-(4-bromo-2-fluorobenzyl)piperidin-4-yl)methoxy)-5-cyclopropyl-2-fluoro-N-(methylsulfonyl)benzamide]
hNav1.7; [1]
  IC50: 11 nM

## CS(=O)(=O)NC(=O)c1cc(C2CC2)c(OCC2CCN(Cc3cc(Cl)cc(C#N)c3)CC2)cc1F [Example 590, 4-((1-(3-chloro-5-cyanobenzyl)piperidin-4-yl)methoxy)-5-cyclopropyl-2-fluoro-N-(methylsulfonyl)benzamide]
hNav1.7
  IC50: 26 nM

## CS(=O)(=O)NC(=O)c1cc(C2CC2)c(OCC2CCN(Cc3ccc(F)c(C#N)c3)CC2)cc1F [Example 591, 4-((1-(3-cyano-4-fluorobenzyl)piperidin-4-yl)methoxy)-5-cyclopropyl-2-fluoro-N-(methylsulfonyl)benzamide]
hNav1.7
  IC50: 240 nM

## CC1(COc2cc(F)c(C(=O)NS(C)(=O)=O)cc2C2CC2)CN(Cc2cc(C(F)(F)F)cc(Cl)c2F)C1 [Example 593, 4-((1-(3-chloro-2-fluoro-5-(trifluoromethyl)benzyl)-3-methylazetidin-3-yl)methoxy)-5-cyclopropyl-2-fluoro-N-(methylsulfonyl)benzamide]
hNav1.7; [1]
  IC50: 9.9 nM

## CS(=O)(=O)NC(=O)c1cc(C2CC2)c(OCC2(C#N)CCN(Cc3cc(C(F)(F)F)cc(Cl)c3F)CC2)cc1F [Example 595, 4-((1-(3-chloro-2-fluoro-5-(trifluoromethyl)benzyl)-4-cyanopiperidin-4-yl)methoxy)-5-cyclopropyl-2-fluoro-N-(methylsulfonyl)benzamide]
hNav1.7; [1]
  IC50: 34.3 nM

## CS(=O)(=O)NC(=O)c1cc(C2CC2)c(OCC2(F)CCN(Cc3cc(C(F)(F)F)cc(C4CC4)n3)CC2)cc1F [Example 596]
hNav1.7; [1]
  IC50: 59.9 nM

## C[C@H](c1cc(Cl)cc(Cl)c1)N1CCC(C#N)(COc2cc(F)c(C(=O)NS(C)(=O)=O)cc2C2CC2)CC1 [Example 597]
hNav1.7; [1]
  IC50: 27.6 nM

## C[C@@H](c1cc(Cl)cc(Cl)c1)N1CCC(C#N)(COc2cc(F)c(C(=O)NS(C)(=O)=O)cc2C2CC2)CC1 [Example 598]
hNav1.7; [1]
  IC50: 258 nM
